In one experiment the test system is Hela (Cervical) cells. The experiment in a line: cells. In kind it is cell-based, human. The following applies: Homo sapiens, HeLa; cervical cancer; MTT, 48 h, 37 °C; DMEM + 10% FBS; 2,500 cells/well; absorbance 570 nm; n = 3 biologically independent. As for the experimental part: (§1) An MTT (2-(4,5-dimethylthiazol-2-yl)−2,5-diphenyltetrazolium bromide) assay was used to determine the cytotoxicity of lapcin towards diverse cancer cell lines. Lapcin was dissolved in DMSO to make a 3.2 mg/mL working solution. For each cancer line detailed in Supplementary Table 5, cells at 80-90% confluency were counted and seeded in 96-well, flat bottom microplates and incubated at 37 °C with a 5% CO2 atmosphere. Outer wells were unused to avoid edge effects. After adhering for 24 h, the medium was sterilely aspirated and replaced with 100 µL of fresh medium containing lapcin or a control compound serially diluted at concentrations ranging from 8,000 to 0.00382 ng/mL. After 48 h (37 °C, 5% CO2), the medium was carefully removed and 110 µL of freshly prepared MTT solution (10 µL of 5 mg/mL MTT in PBS (pH 7.4) premixed with 100 µL of complete medium) was added to each well. After 3 h at 37 °C with 5% CO2, 100 µL of solubilization solution (40% DMF, 16% SDS and 2% acetic acid in H2O) was added to each well and precipitated formazan crystals were allowed to dissolve for 4 h. The absorbance of each well was then measured at 570 nm using a Tecan microplate reader.

The next experiment relates to U2OS (Bone) cells. The experiment in a line: cells. In kind it is cell-based, human. The following applies: Homo sapiens, U2OS; bone cancer; MTT, 48 h, 37 °C; DMEM + 10% FBS + NEAA; 2,500 cells/well; absorbance 570 nm; n = 3 biologically independent. The procedure:
as §1

Another experiment deals with A549 cells. The experiment in a line: cells. In kind it is cell-based, human. The following applies: Homo sapiens, A549; lung cancer; MTT, 48 h, 37 °C; DMEM + 10% FBS + NEAA; 2,500 cells/well; absorbance 570 nm; n = 3 biologically independent. As for the experimental part: as §1
The test system of a further experiment is NCI-H1299 cells. The experiment in a line: cells. In kind it is cell-based, human. The following applies: Homo sapiens, NCI-H1299; lung cancer; MTT, 48 h, 37 °C; RPMI-1640 + 10% FBS; 2,500 cells/well; absorbance 570 nm; n = 3 biologically independent. The procedure: as §1
For another experiment, the system named is SW480 cells. The experiment in a line: cells. In kind it is cell-based, human. The settings on record: Homo sapiens, SW480; colon cancer; MTT, 48 h, 37 °C; DMEM + 10% FBS; 10,000 cells/well; absorbance 570 nm; n = 3 biologically independent. As for the experimental part: as §1
The next experiment has as its system HEK293 cells. The experiment in a line: cells. In kind it is cell-based, human. The following applies: Homo sapiens, HEK293; normal cell; MTT, 48 h, 37 °C; DMEM + 10% FBS; 5, 000 cells/well; absorbance 570 nm; n = 3 biologically independent. The procedure:
as §1

The next experiment has as its system HT29 cells. The experiment in a line: cells. In kind it is cell-based, human. The settings on record: Homo sapiens, HT-29; colon cancer; MTT, 48 h, 37 °C; DMEM + 10% FBS; 2,500 cells/well; absorbance 570 nm; n = 3 biologically independent. The procedure: as §1
For a further experiment, the system named is HCT116 cells. The experiment in a line: cells. In kind it is cell-based, human. The settings on record: Homo sapiens, HCT-116; colon cancer; MTT, 48 h, 37 °C; DMEM + 10% FBS; 10,000 cells/well; absorbance 570 nm; n = 3 biologically independent. As for the experimental part:
as §1

A further experiment deals with MCF 7 cells. The experiment in a line: cells. In kind it is cell-based, human. The following applies: Homo sapiens, MCF7; breast cancer; MTT, 48 h, 37 °C; DMEM + 10% FBS; 8,000 cells/well; absorbance 570 nm; n = 3 biologically independent. The procedure: as §1
Another experiment deals with NCI-H226 cells. The experiment in a line: cells. In kind it is cell-based, human. The following applies: Homo sapiens, NCI-H226; lung cancer; MTT, 48 h, 37 °C; RPMI-1640 + 10% FBS; 10,000 cells/well; absorbance 570 nm; n = 3 biologically independent. The procedure:
as §1

In the next experiment the test system is HCC1806 cells. The experiment in a line: cells. The settings on record: Homo sapiens, HCC1806; breast cancer; MTT, 48 h, 37 °C; RPMI-1640 + 10% FBS; 2,500 cells/well; absorbance 570 nm; n = 3 biologically independent. In kind it is cell-based, human. The procedure: as §1
The next experiment concerns Colo205 cells. The experiment in a line: cells. In kind it is cell-based, human. The settings on record: Homo sapiens, COLO 205; colon cancer; MTT, 48 h, 37 °C; RPMI-1640 + 10% FBS; 2,500 cells/well; absorbance 570 nm; n = 3 biologically independent. The procedure: as §1
Another experiment relates to bacterial DNA gyrase. The settings on record: ref [9],[25]; cited from earlier work.

As usually defined, the IC50 is the concentration that inhibits the measured activity by half.

A value given as a limit tells only on which side of the number the result lay.

Turning to `CC[C@@]1(O)C(=O)OCc2c1cc1n(c2=O)Cc2cc3ccccc3nc2-1` [Camptothecin], the IC50 in the experiment with Hela (Cervical) cells was determined as 62.6 nM; in the experiment with U2OS (Bone) cells, 172 nM; in the experiment on A549 cells it was 17.6 nM; with NCI-H1299 cells it was 15 nM; in the experiment on SW480 cells, 284 nM; in the experiment on HEK293 cells, 19.2 nM. For the same molecule, the IC50 with HT29 cells is 22.3 nM; with HCT116 cells, 129 nM; in the experiment on MCF 7 cells, > 29200 nM; in the experiment on NCI-H226 cells it was 28.5 nM; with HCC1806 cells, 19.6 nM; in the experiment on Colo205 cells, 95.7 nM.
albicidin: the “inhibition of bacterial DNA gyrase” value in the experiment on bacterial DNA gyrase was “inhibit the bacterial DNA gyrase”.
As for `COc1cc([C@@H]2c3cc4c(cc3[C@@H](O[C@@H]3O[C@@H]5CO[C@@H](C)O[C@H]5[C@H](O)[C@H]3O)[C@H]3COC(=O)[C@H]23)OCO4)cc(OC)c1O` [Etoposide], the half-inhibitory concentration (IC50) in the experiment on Hela (Cervical) cells worked out at 1510 nM; in the experiment with U2OS (Bone) cells, 1840 nM; with A549 cells, 79.9 nM; in the experiment with NCI-H1299 cells, 716 nM; in the experiment on SW480 cells it was 26900 nM; in the experiment with HEK293 cells, 729 nM. In addition, the IC50 with HT29 cells was 9610 nM; in the experiment on HCT116 cells, > 54400 nM; with MCF 7 cells it was 333 nM; in the experiment with NCI-H226 cells, 217 nM; in the experiment with HCC1806 cells, 3330 nM.

Source of the values: paper PMC8837603, “Lapcin, a potent dual topoisomerase I/II inhibitor discovered by soil metagenome guided total chemical synthesis” (Nature Communications, 2022).
